In brackets after ≈: the same amount, converted by molar mass.
Tests used:
[1] = test system: S. coelicolor strain with the neo reporter gene; test: neo reporter strain assay (kanamycin resistance under PopR-dependent promoter); format: cell-based, S. coelicolor M145; details: DNAgar, 10 μg/mL kanamycin, optical density at 48 hrs
[2] = test system: M. smegmatis MC2155; test: toxicity to M. smegmatis (growth suppression, MIC); format: cell-based; details: for suppression of growth of M. smegmatis: M. smegmatis MC2155
Method: To determine if the results in the S. coelicolor based assay had relevance to Mycobacteria, all fourteen compounds were tested for toxicity to M. smegmatis MC2155, a surrogate of M. tuberculosis. […] Three of these inhibitory compounds were trans-disubstituted β-lactones with unbranched alkyl substituents on both the α- and β-carbons (β-lactones 2-4). For these molecules, there was a positive correlation between the length of the alkyl group on the α-carbon and antibacterial activity. […] The compounds were subsequently shown to be inhibitors of ClpP in vitro. In Mycobacteria, ClpP inhibition is associated with killing. Previous reports of ClpP inhibition generally described suppression of virulence in pathogenic bacteria (S. aureus and L. monocytogenes).

[3] = test system: M. tuberculosis H37Rv; test: toxicity to M. tuberculosis (growth inhibition, MIC); format: cell-based

Structure (SMILES) | growth of reporter strain on media supplemented with kanamycin [1] | suppression of growth of M. smegmatis [2] | inhibition of growth of M. tuberculosis H37Rv [3] | MIC ([2]; Mycolicibacterium smegmatis, MC2155, M. smegmatis) | MIC ([3]; Mycobacterium tuberculosis, H37RV, M. tuberculosis)
CCCCCC1C(=O)OC1CCC (stereo not drawn) [Compound 2] | enabled the reporter strain to grow on media supplemented with kanamycin | suppressed the growth of M. smegmatis | – | – | –
CCCCCCCC1C(=O)OC1CCC (stereo not drawn) [Compound 3] | enabled the reporter strain to grow on media supplemented with kanamycin | suppressed the growth of M. smegmatis | – | – | –
C=CCCCCCCCC1C(=O)OC1CCC (stereo not drawn) [Compound 4] | enabled the reporter strain to grow on media supplemented with kanamycin | suppressed the growth of M. smegmatis | inhibited growth of M. tuberculosis H37Rv | – | –
CCCC1OC(=O)C1Cc1ccccc1 (stereo not drawn) [Compound 7] | enabled the reporter strain to grow on media supplemented with kanamycin | suppressed the growth of M. smegmatis | inhibited growth of M. tuberculosis H37Rv | 10 µg/mL (≈ 49 µM) | 28 µg/mL (≈ 137 µM)
